{"source": "ChEMBL document CHEMBL4673341", "about": "“Anti-prion and α-Synuclein Aggregation Inhibitory Sterols from the Sponge Lamellodysidea cf. chlorea” (J Nat Prod, 2020)", "key": {"[1]": {"assay": "Anti-prion activity against [PSI+] protein in Saccharomyces cerevisiae STRg6 measured after 96 hrs by fluorimetry analysis"}, "Saccharomyces cerevisiae": {"test_system": "Saccharomyces cerevisiae", "assay": "Anti-prion activity against [URE3] protein in Saccharomyces cerevisiae SB34 at 100 uM measured after 96 hrs by fluorimetry analysis"}, "[2]": {"target": "Alpha-synuclein (Homo sapiens) (UniProt P37840)", "assay": "Inhibition of human alpha-synuclein aggregation expressed in Escherichia coli BL21 (DE3) cells at 400 uM at 5:1 molar ratio after 72 hrs by ThT fluorescence assay relative to control", "set-up": "scale not given: the % may be the effect or the level left"}, "[3]": {"target": "Alpha-synuclein (Homo sapiens) (UniProt P37840)", "assay": "Binding affinity to human alpha-synuclein aggregation expressed in Escherichia coli BL21 (DE3) cells at 50 uM at 1:1 molar ratio after 3 hrs by (+) HRESIMS analysis"}}, "note": "Activity calls are given as the source filed them. No cut-off for these calls is given here.", "data": [{"smiles": "CC(/C=C/[C@@H](C)[C@H]1CC[C@@H]2[C@]1(C)CC[C@@H]1[C@@]3(C)CC[C@@H](O)C[C@@H]3C[C@@H](O)[C@]12O)C(C)COS(=O)(=O)O", "note": "(some centres undefined)", "values": [{"measurement": "EC50", "setting": "[1]", "value": 9.8, "unit": "µM"}]}, {"smiles": "CC(CCC[C@@H](C)[C@H]1CC[C@@H]2[C@]1(C)CC[C@@H]1[C@@]3(C)CC[C@@H](O)C[C@@H]3C[C@@H](O)[C@]12O)COS(=O)(=O)O", "note": "(some centres undefined)", "values": [{"measurement": "Activity", "setting": "Saccharomyces cerevisiae", "value": "Active"}, {"measurement": "Activity", "setting": "[2]", "value": 68, "unit": "%"}, {"measurement": "EC50", "setting": "[1]", "value": 12.7, "unit": "µM"}, {"measurement": "Activity", "setting": "[3]", "value": "Active"}]}, {"smiles": "N=C(N)N/N=C/c1c(Cl)cccc1Cl", "note": "[GUANABENZ]", "values": [{"measurement": "Activity", "setting": "Saccharomyces cerevisiae", "value": "Active"}, {"measurement": "EC50", "setting": "[1]", "value": 26, "unit": "µM"}]}, {"smiles": "C[C@@H](C/C=C/[C@@H](C)[C@H]1CC[C@@H]2[C@]1(C)CC[C@@H]1[C@@]3(C)CC[C@@H](O)C[C@@H]3C[C@@H](O)[C@]12O)COS(=O)(=O)O", "note": "(relative stereo)", "values": [{"measurement": "EC50", "setting": "[1]", "value": 13.8, "unit": "µM"}]}, {"smiles": "O=C(O[C@@H]1Cc2c(O)cc(O)cc2O[C@@H]1c1cc(O)c(O)c(O)c1)c1cc(O)c(O)c(O)c1", "values": [{"measurement": "Activity", "setting": "[2]", "value": 96.3, "unit": "%"}]}]}
